Source: patent publication US10195196B2, “1,4-disubstituted pyridazine analogs there of and methods for treating SMN-deficiency-related conditions” (NOVARTIS AG, priority 2012, dated 2019)

Test system: SMN protein
Assay: cellular SMN ELISA (SMN protein elevation)
Type: cell-based
Conditions: myoblast cell line from SMNdelta7 mouse model, 24 hours treatment; for SMN activity Fold: fold activation over DMSO control
Method: A cellular SMN ELISA was used to measure the effects of low molecular weight compounds on SMN protein elevation. Cells from a myoblast cell line derived from the SMNdelta7 mouse model (kind gift from Steve Burden, NYU) were seeded into a 384-well plate at a density of 3000 cells/well and treated with compounds for 24 hours. ELISA capture plates were prepared by coating 384-well plates (Immulon 4HBX) with 0.5 ug/mL of anti-SMN mAb (BD Science, Catalog number 610647) at 4° C. overnight. The plates were washed 5 times with 110 uL of PBS-Tween (0.05% Tween-20, PBST), blocked with 100 uL of 1% BSA in PBST for 2 hours and washed (5 times) with 100 uL of PBST. After 24 hours of compound treatment cells were lysed in a modified RIPA-buffer, on ice for 1 hour. 20 uL of lysate and 20 uL of 1% BSA were then added to the ELISA capture plates and incubated at 4° C. overnight. Plates were washed (5 times) with PBST and then incubated with 1:100 dilution of primary rabbit anti-SMN polyclonal antibody (Santa cruz, Catalog number SC-15320) at room temperature for 1 hour and subsequently washed (5 times) with 110 uL of PBST. This was followed by addition of 1:100 Goat anti-Rabbit IgG-HRP linked (Cell Signaling, Catalog number 7074) secondary antibody for 1 hour. Plates were then washed with PBST and incubated with 40 uL TMB substrate (Cell Signaling, Catalog number 7004L) at room temperature for 1-10 minutes with shaking. The reaction was stopped by addition of 40 uL of stop solution (Cell signaling, Catalog number 7002L) and absorption was measured at 450 nm. Data was reported as fold activation over DMSO control, and EC50.
ELISA assay condition 1: compound concentration range 20 nM-10 uM; ELISA assay condition 2: compound concentration 100 pM-10 uM.

[1] = ELISA condition 1: compound concentration range 20 nM-10 uM
[2] = ELISA condition 2: compound concentration 100 pM-10 uM

`CN(c1ccc(-c2cc(C#N)ccc2O)nn1)C1CC(C)(C)NC(C)(C)C1` [Example 3-5, 4-hydroxy-3-(6-(methyl(2,2,6,6-tetramethylpiperidin-4-yl)amino)pyridazin-3-yl)benzonitrile] was tested, and the EC50 [1] was 100 nM and the “SMN activity Fold” value [1] was 2.38 Fold.
For `CC1(C)CC(Oc2ccc(-c3cc4ccccc4cc3O)nn2)CC(C)(C)N1` [Example 3-6, 3-[6-(2,2,6,6-tetramethyl-piperidin-4-yloxy)-pyridazin-3-yl]-naphthalen-2-ol], the EC50 [2] was 110 nM and the “SMN activity Fold” value [2] was 3.01 Fold.
For `CN(c1ccc(-c2cc(C(F)(F)F)ccc2O)nn1)C1CC(C)(C)NC(C)(C)C1` [Example 3-7, 2-{6-[methyl-(2,2,6,6-tetramethyl-piperidin-4-yl)-amino]-pyridazin-3-yl}-4-trifluoromethyl-phenol], the EC50 [1] was 4530 nM and the “SMN activity Fold” value [1] was 2.67 Fold.
With `CN(c1ccc(-c2cccc(F)c2O)nn1)C1CC(C)(C)NC(C)(C)C1` [Example 3-8, 2-fluoro-6-{6-[methyl-(2,2,6,6-tetramethyl-piperidin-4-yl)-amino]-pyridazin-3-yl}-phenol] the EC50 [2] was 1580 nM and the “SMN activity Fold” value [2] was 2.72 Fold.
`COc1cc(O)c(-c2ccc(N(C)C3CC(C)(C)NC(C)(C)C3)nn2)c(OC)c1` [Example 3-9, 3,5-dimethoxy-2-{6-[methyl-(2,2,6,6-tetramethyl-piperidin-4-yl)-amino]-pyridazin-3-yl}-phenol] was tested, and the EC50 [2] was 323 nM and the “SMN activity Fold” value [2] was 2.88 Fold.
For `COc1cc(O)c(-c2ccc(N(C)C3CC(C)(C)NC(C)(C)C3)nn2)cc1OC` [Example 3-10, 4,5-dimethoxy-2-{6-[methyl-(2,2,6,6-tetramethyl-piperidin-4-yl)-amino]-pyridazin-3-yl}-phenol], the EC50 [2] was 855 nM and the “SMN activity Fold” value [2] was 2.53 Fold.
With `COc1ccc(-c2ccc(N(C)C3CC(C)(C)NC(C)(C)C3)nn2)c(O)c1` [Example 3-11, 5-methoxy-2-{6-[methyl-(2,2,6,6-tetramethyl-piperidin-4-yl)-amino]-pyridazin-3-yl}-phenol] the EC50 [2] was 220 nM and the “SMN activity Fold” value [2] was 2.47 Fold.
For `CN(c1ccc(-c2cc(F)c(F)cc2O)nn1)C1CC(C)(C)NC(C)(C)C1` [Example 3-12, 4,5-difluoro-2-{6-[methyl-(2,2,6,6-tetramethyl-piperidin-4-yl)-amino]-pyridazin-3-yl}-phenol], the EC50 [1] was 129 nM and the “SMN activity Fold” value [1] was 2.70 Fold.
`C=CCc1c(O)ccc2cc(-c3ccc(N(C)C4CC(C)(C)NC(C)(C)C4)nn3)ccc12` [Example 6-1, 1-allyl-6-(6-(methyl(2,2,6,6-tetramethylpiperidin-4-yl)amino)pyridazin-3-yl)naphthalen-2-ol] was tested, and the EC50 [2] was 630 nM and the “SMN activity Fold” value [2] was 2.04 Fold.
For `CN1C(C)(C)CC(Nc2ccc(-c3cc4ccccc4s3)nn2)CC1(C)C` [Example 7-1, 6-(benzo[b]thiophen-2-yl)-N-(1,2,2,6,6-pentamethylpiperidin-4-yl)pyridazin-3-amine], the EC50 [1] was 2730 nM and the “SMN activity Fold” value [1] was 2.54 Fold.
With `C=CCNC(=O)c1ccc(-c2ccc(N(C)C3CC(C)(C)NC(C)(C)C3)nn2)c(O)c1` [Example 8-1, N-allyl-3-hydroxy-4-(6-(methyl(2,2,6,6-tetramethylpiperidin-4-yl)amino)pyridazin-3-yl)benzamide] the EC50 [1] was 280 nM and the “SMN activity Fold” value [1] was 2.72 Fold.
With `Cc1cnc(-c2ccc(-c3ccc(N(C)C4CC(C)(C)NC(C)(C)C4)nn3)c(O)c2)o1` [Example 10-1, 5-(5-methyl-oxazol-2-yl)-2-{6-[methyl-(2,2,6,6-tetramethyl-piperidin-4-yl)-amino]-pyridazin-3-yl}-phenol] the EC50 [2] was 31 nM and the “SMN activity Fold” value [2] was 2.99 Fold.
With `CN(c1ccc(-c2ccc(-n3ccnc3)cc2O)nn1)C1CC(C)(C)NC(C)(C)C1` [Example 12-1, 5-(1H-imidazole-1-yl)-2-(6-(methyl(2,2,6,6-tetramethyl-piperidin-4-yl)amino)pyridazin-3-yl)phenol] the EC50 [2] was 4 nM and the “SMN activity Fold” value [2] was 3.13 Fold.
`CN(c1ccc(-c2ccc(-n3cc(N)cn3)cc2O)nn1)C1CC(C)(C)NC(C)(C)C1` [Example 13-1, 5-(4-amino-1H-pyrazole-1-yl)-2-(6-(methyl(2,2,6,6-tetramethylpiperidin-4-yl)amino)pyridazin-3-yl)phenol] was tested, and the EC50 [2] was 20 nM and the “SMN activity Fold” value [2] was 3.46 Fold.
With `CN(c1ccc(-c2ccc(-c3cnn(CCN4CCOCC4)c3)cc2O)nn1)C1CC(C)(C)NC(C)(C)C1` [Example 16-1, 2-(6-(methyl(2,2,6,6-tetramethylpiperidin-4-yl)amino)pyridazin-3-yl)-5-(1-(2-morpholino-ethyl)-1H-pyrazol-4-yl)phenol] the EC50 [2] was 77 nM and the “SMN activity Fold” value [2] was 2.66 Fold.
With `CN(c1ccc(-c2ccc(-c3cnn(C)c3)cc2O)nn1)C1CC(C)(C)NC(C)(C)C1` [Example 16-2, 2-(6-(methyl(2,2,6,6-tetramethylpiperidin-4-yl)amino)pyridazin-3-yl)-5-(1-methyl-1H-pyrazol-4-yl)phenol] the EC50 [2] was 15 nM and the “SMN activity Fold” value [2] was 3.21 Fold.
`CN(c1ccc(-c2ccc(-n3nccc3N)cc2O)nn1)C1CC(C)(C)NC(C)(C)C1` [Example 16-3, 5-(5-amino-1H-pyrazol-1-yl)-2-(6-(methyl-(2,2,6,6-tetramethyl-piperidin-4-yl)amino)pyridazin-3-yl)phenol] was tested, and the EC50 [2] was 625 nM and the “SMN activity Fold” value [2] was 2.39 Fold.
`CN(c1ccc(-c2cc(-n3cccn3)ccc2O)nn1)C1CC(C)(C)NC(C)(C)C1` [Example 16-4, 2-(6-(methyl(2,2,6,6-tetramethylpiperidin-4-yl)amino)pyridazin-3-yl)-4-(1H-pyrazol-1-yl)phenol] was tested, and the EC50 [2] was 94 nM and the “SMN activity Fold” value [2] was 2.71 Fold.
For `CC1(C)CC(N(CCO)c2ccc(-c3ccc(-n4cccn4)cc3O)nn2)CC(C)(C)N1` [Example 16-5, 2-{6-[(2-hydroxy-ethyl)-(2,2,6,6-tetramethyl-piperidin-4-yl)-amino]-pyridazin-3-yl}-5-pyrazol-1-yl-phenol], the EC50 [2] was 24 nM and the “SMN activity Fold” value [2] was 2.41 Fold.
`C[C@@H]1C[C@H](Oc2ccc(-c3ccc(-n4cccn4)cc3O)nn2)C[C@H](C)N1` [Example 17-2, 2-(6-(((2S,4R,6R)-2,6-Dimethylpiperidin-4-yl)oxy)pyridazin-3-yl)-5-(1H-pyrazol-1-yl)phenol] was tested, and the EC50 [1] was 70 nM and the “SMN activity Fold” value [1] was 2.62 Fold.
With `Oc1cc(-n2cccn2)ccc1-c1ccc(OC2CCNC2)nn1` (stereo not shown) [Example 17-5, 5-(1H-pyrazol-1-yl)-2-(6-(pyrrolidin-3-yloxy)pyridazin-3-yl)phenol] the EC50 [2] was 2440 nM and the “SMN activity Fold” value [2] was 2.78 Fold.
`Oc1cc(-n2cccn2)ccc1-c1ccc(OC2CCNCC2F)nn1` (stereo not shown) [Example 17-10, 2-(6-((3-fluoropiperidin-4-yl)oxy)pyridazin-3-yl)-5-(1H-pyrazol-1-yl)-phenol] was tested, and the EC50 [2] was 945 nM and the “SMN activity Fold” value [2] was 2.03 Fold.
For `CN1C(C)(C)CC(Oc2ccc(-c3ccc(-n4cccn4)cc3O)nn2)CC1(C)C` [Example 17-11, 2-[6-(1,2,2,6,6-pentamethyl-piperidin-4-yloxy)-pyridazin-3-yl]-5-pyrazol-1-yl-phenol], the EC50 [2] was 665 nM and the “SMN activity Fold” value [2] was 3.01 Fold.
In the case of `Oc1cc(-n2cccn2)ccc1-c1ccc(N2CCNCC2)nn1` [Example 18-1, 2-(6-piperazin-1-yl-pyridazin-3-yl)-5-pyrazol-1-yl-phenol], the EC50 [2] is reported as 296 nM and the “SMN activity Fold” value [2] is reported as 3.07 Fold.
`Oc1cc2ccccc2cc1-c1ccc(NC2CNC2)nn1` [Example 18-2, 3-[6-(azetidin-3-ylamino)-pyridazin-3-yl]-naphthalen-2-ol] was tested, and the EC50 [2] was 3230 nM and the “SMN activity Fold” value [2] was 1.97 Fold.
In the case of `Oc1cc(-n2cccn2)ccc1-c1ccc(NC2CNC2)nn1` [Example 18-3, 2-[6-(azetidin-3-ylamino)-pyridazin-3-yl]-5-pyrazol-1-yl-phenol], the EC50 [1] is reported as 660 nM and the “SMN activity Fold” value [1] is reported as 1.95 Fold.
With `CC1CN(c2ccc(-c3ccc(-n4cccn4)cc3O)nn2)CC(C)N1` (stereo not shown) [Example 18-4, 2-[6-(3,5-dimethyl-piperazin-1-yl)-pyridazin-3-yl]-5-pyrazol-1-yl-phenol] the EC50 [2] was 388 nM and the “SMN activity Fold” value [2] was 2.84 Fold.
For `CN1CCC2(CCN(c3ccc(-c4ccc(-n5cccn5)cc4O)nn3)C2)C1` (stereo not shown) [Example 18-5, 2-[6-(7-methyl-2,7-diaza-spiro[4.4]non-2-yl)-pyridazin-3-yl]-5-pyrazol-1-yl-phenol], the EC50 [2] was 151 nM and the “SMN activity Fold” value [2] was 2.66 Fold.
With `Oc1cc(-n2cccn2)ccc1-c1ccc(N2CCCNCC2)nn1` [Example 18-6, 2-(6-[1,4]diazepan-1-yl-pyridazin-3-yl)-5-pyrazol-1-yl-phenol] the EC50 [2] was 268 nM and the “SMN activity Fold” value [2] was 2.54 Fold.
